Data from ChEMBL document CHEMBL1144970, “Protective effects of steroid saponins from Paris polyphylla var. yunnanensis on ethanol- or indomethacin-induced gastric mucosal lesions in rats: structural requirement for activity and mode of action” (Bioorg Med Chem Lett, 2003).

Key:
Rattus norvegicus [1] = assay: Reduction in length (control value = 54.6+/-16.5) of gastric lesions induced by endomethacin was measured, after administration of 10 mg/kg po in rats; assay type: functional, Stomach
Rattus norvegicus [2] = assay: Reduction in length (control value = 107+/-14.5) of gastric lesions induced by ethanol was measured, after administration of 2.5 mg/kg po in rats; assay type: functional, Stomach
Rattus norvegicus [3] = assay: Percent inhibition of gastric lesions induced by ethanol was measured, after administration of 10 mg/kg po in rats; assay type: functional; conditions: Stomach
Rattus norvegicus [4] = assay: Percent inhibition of gastric lesions induced by endomethacin was measured, after administration of 10 mg/kg po in rats; assay type: functional; conditions: Stomach
Rattus norvegicus [5] = assay: Percent inhibition of gastric lesions induced by ethanol was measured, after administration of 5 mg/kg po in rats; assay type: functional; conditions: Stomach
Rattus norvegicus [6] = assay: Reduction in length (control value = 70.8+/-5.3) of gastric lesions induced by endomethacin was measured, after administration of 2.5 mg/kg po in rats; assay type: functional, Stomach
Rattus norvegicus [7] = assay: Reduction in length (control value = 169.6+/-1.9) of gastric lesions induced by ethanol was measured, after administration of 5 mg/kg po in NEM-pretreated rats; assay type: functional, Stomach
Rattus norvegicus [8] = assay: Reduction in length (control value = 169.6+/-1.9) of gastric lesions induced by ethanol was measured, after administration of 10 mg/kg po in NEM-pretreated rats; assay type: functional, Stomach
Rattus norvegicus [9] = assay: Volume of the gastric juice (Control value = 4.9+/-0.3) of stomach content of pylorus ligated rats was measured (10 mg/kg po of the Compound was administered 1 hr before the pylorus ligation); assay type: functional
Rattus norvegicus [10] = assay: Percent inhibition of gastric lesions induced by ethanol was measured, after administration of 2.5 mg/kg po in rats; assay type: functional; conditions: Stomach
Rattus norvegicus [11] = assay: pH of the gastric juice (Control value = 1.44+/-0.01) of stomach content of pylorus ligated rats was measured ( 5 mg/kg po of the Compound was administered 1 hr before the pylorus ligation); assay type: ADME, organism-based; set-up: dose 5 mg/kg, route oral; conditions: in vivo
Rattus norvegicus [12] = assay: Percent inhibition of gastric lesions (length = 92.3+/-9) induced by ethanol was measured, after administration of 5 mg/kg po in NEM-pretreated rats; assay type: functional; conditions: Stomach
Rattus norvegicus [13] = assay: Percent inhibition of gastric lesions (length = 96.1+/-13.7) induced by ethanol was measured, after administration of 10 mg/kg po in endomethacin pretreated rats; assay type: functional; conditions: Stomach
Rattus norvegicus [14] = assay: Percent inhibition of gastric lesions (length = 60.8+/-11.6) induced by ethanol was measured, after administration of 5 mg/kg po in L-NAME-pretreated rats; assay type: functional; conditions: Stomach
Rattus norvegicus [15] = assay: Reduction in length (control value = 124.3+/-7.8) of gastric lesions induced by ethanol was measured, after administration of 10 mg/kg po in indomethacin-pretreated rats; assay type: functional, Stomach
Rattus norvegicus [16] = assay: pH of the gastric juice (Control value = 1.44+/-0.01) of stomach content of pylorus ligated rats was measured (10 mg/kg po of the Compound was administered 1 hr before the pylorus ligation); assay type: ADME, organism-based; conditions: in vivo
Rattus norvegicus [17] = assay: Percent inhibition of gastric lesions induced by endomethacin was measured, after administration of 2.5 mg/kg po in rats; assay type: functional; conditions: Stomach
Rattus norvegicus [18] = assay: Reduction in length (control value = 188.7+/-10.5) of gastric lesions induced by ethanol was measured, after administration of 5 mg/kg po in L-NAME-pretreated rats; assay type: functional, Stomach
Rattus norvegicus [19] = assay: Reduction in length (control value = 124.3+/-7.8) of gastric lesions induced by ethanol was measured, after administration of 5 mg/kg po in indomethacin-pretreated rats; assay type: functional, Stomach
Rattus norvegicus [20] = assay: Reduction in length (control value = 126.1+/-5.7) of gastric lesions induced by ethanol was measured, after administration of 10 mg/kg po in rats; assay type: functional, Stomach
Rattus norvegicus [21] = assay: Percent inhibition of gastric lesions induced by endomethacin was measured, after administration of 5 mg/kg po in rats; assay type: functional; conditions: Stomach
Rattus norvegicus [22] = assay: Percent inhibition of gastric lesions (length = 61.5+/-4.4) induced by ethanol was measured, after administration of 10 mg/kg po in NEM-pretreated rats; assay type: functional; conditions: Stomach
Rattus norvegicus [23] = assay: Percent inhibition of gastric lesions (length = 102.2+/-8.1) induced by ethanol was measured, after administration of 5 mg/kg po in endomethacin pretreated rats; assay type: functional; conditions: Stomach
Rattus norvegicus [24] = assay: Percent inhibition of gastric lesions (length = 31.4+/-3.8) induced by ethanol was measured, after administration of 10 mg/kg po in L-NAME-pretreated rats; assay type: functional; conditions: Stomach
Rattus norvegicus [25] = assay: Reduction in length (control value = 206.7+/-6.3) of gastric lesions induced by endomethacin was measured, after administration of 5 mg/kg po NEM-pretreated in rats; assay type: functional, Stomach
Rattus norvegicus [26] = assay: Reduction in length (control value = 70.8+/-5.3) of gastric lesions induced by endomethacin was measured, after administration of 5 mg/kg po in rats; assay type: functional, Stomach
Rattus norvegicus [27] = assay: Percent inhibition of gastric lesions (length = 35.7+/-2.3) induced by ethanol was measured, after administration of 5 mg/kg po in rats; assay type: functional; conditions: Stomach
Rattus norvegicus [28] = assay: Percent inhibition of gastric lesions (length = 15.3+/-2.9) induced by ethanol was measured, after administration of 10 mg/kg po in rats; assay type: functional; conditions: Stomach
Rattus norvegicus [29] = assay: Volume of the gastric juice (Control value = 4.9+/-0.3) of stomach content of pylorus ligated rats was measured (5 mg/kg po of the Compound was administered 1 hr before the pylorus ligation); assay type: functional
Rattus norvegicus [30] = assay: Reduction in length (control value = 70.8+/-5.3) of gastric lesions induced by endomethacin was measured, after administration of 10 mg/kg po in rats; assay type: functional, Stomach
Rattus norvegicus [31] = assay: Reduction in length (control value = 126.1+/-5.7) of gastric lesions induced by ethanol was measured, after administration of 2.5 mg/kg po in rats; assay type: functional, Stomach
Rattus norvegicus [32] = assay: Acid output from the stomach (control value = 119.7+/-11.7) in pylorus ligated rats (10 mg/kg po of the Compound was administered 1 hr before the pylorus ligation); assay type: functional
Rattus norvegicus [33] = assay: Acid output from the stomach (control value = 119.7+/-11.7) in pylorus ligated rats (5 mg/kg po of the Compound was administered 1 hr before the pylorus ligation); assay type: functional
Rattus norvegicus [34] = assay: Reduction in length (control value = 126.1+/-5.7) of gastric lesions induced by ethanol was measured, after administration of 5 mg/kg po in rats; assay type: functional, Stomach
Rattus norvegicus [35] = assay: Reduction in length (control value = 126+/-9.1) of gastric lesions induced by ethanol was measured, after administration of 5 mg/kg po in rats; assay type: functional, Stomach
Rattus norvegicus [36] = assay: Reduction in length (control value = 88.9+/-5.5) of gastric lesions induced by endomethacin was measured, after administration of 5 mg/kg po in rats; assay type: functional, Stomach
Rattus norvegicus [37] = assay: Reduction in length ((control value = 126+/-9.1)of gastric lesions induced by ethanol was measured, after administration of 2.5 mg/kg po in rats; assay type: functional, Stomach
Rattus norvegicus [38] = assay: Reduction in length ((control value = 126+/-9.1) of gastric lesions induced by ethanol was measured, after administration of 2.5 mg/kg po in rats; assay type: functional, Stomach
Rattus norvegicus [39] = assay: Reduction in length (control value = 138+/-12.1) of gastric lesions induced by ethanol was measured, after administration of 10 mg/kg po in rats; assay type: functional, Stomach
Rattus norvegicus [40] = assay: Reduction in length (control value = 62.8+/-12.4) of gastric lesions induced by endomethacin was measured, after administration of 10 mg/kg po in rats; assay type: functional, Stomach

## C[C@@H]1CC[C@@]2(OC1)O[C@H]1C[C@H]3[C@@H]4CC=C5C[C@@H](O)CC[C@]5(C)[C@H]4CC[C@]3(C)[C@H]1[C@@H]2C [DISOGENIN]
Rattus norvegicus [1]
  Length: 49.9 mm
Rattus norvegicus [2]
  Length: 76.9 mm
Rattus norvegicus [3]
  inhibition in vivo at 10 mg/kg: 28.1%
Rattus norvegicus [4]
  inhibition in vivo at 10 mg/kg: 8.6%

## C[C@@H]1CC[C@@]2(OC1)OC1C[C@H]3[C@@H]4CC=C5C[C@@H](O[C@@H]6O[C@H](CO)[C@@H](O[C@@H]7O[C@@H](CO)[C@H](O)[C@H]7O)[C@H](O)[C@H]6O[C@@H]6O[C@@H](C)[C@H](O)[C@@H](O)[C@H]6O)CC[C@]5(C)[C@H]4CC[C@]3(C)C1[C@@H]2C (some centres not stated)
Rattus norvegicus [5]
  inhibition in vivo at 5 mg/kg: 63.1%
Rattus norvegicus [6]
  Length: 27.9 mm
Rattus norvegicus [7]
  Length: 92.3 mm
Rattus norvegicus [8]
  Length: 31.4 mm
Rattus norvegicus [9]
  Volume: 3.6 ml 4hr-1
Rattus norvegicus [10]
  inhibition in vivo at 2.5 mg/kg: 39.7%
Rattus norvegicus [11]
  pH: 1.47
Rattus norvegicus [12]
  inhibition in vivo at 5 mg/kg: 45.6%
Rattus norvegicus [13]
  inhibition in vivo at 10 mg/kg: 22.7%
Rattus norvegicus [14]
  inhibition in vivo at 5 mg/kg: 67.8%
Rattus norvegicus [15]
  Length: 96.1 mm
Rattus norvegicus [16]
  pH: 1.48
Rattus norvegicus [17]
  inhibition in vivo at 2.5 mg/kg: 60.6%
Rattus norvegicus [18]
  Length: 60.8 mm
Rattus norvegicus [19]
  Length: 102 mm
Rattus norvegicus [20]
  Length: 11.4 mm
Rattus norvegicus [21]
  inhibition in vivo at 5 mg/kg: 67.2%
Rattus norvegicus [22]
  inhibition in vivo at 10 mg/kg: 63.7%
Rattus norvegicus [3]
  inhibition in vivo at 10 mg/kg: 91%
Rattus norvegicus [23]
  inhibition in vivo at 5 mg/kg: 17.8%
Rattus norvegicus [24]
  inhibition in vivo at 10 mg/kg: 83.4%
Rattus norvegicus [25]
  Length: 61.5 mm
Rattus norvegicus [26]
  Length: 23.2 mm
Rattus norvegicus [27]
  inhibition in vivo at 5 mg/kg: 69.3%
Rattus norvegicus [28]
  inhibition in vivo at 10 mg/kg: 86.9%
Rattus norvegicus [29]
  Volume: 4.4 ml 4hr-1
Rattus norvegicus [30]
  Length: 10.9 mm
Rattus norvegicus [31]
  Length: 76.1 mm
Rattus norvegicus [32]
  Acid output: 82.1 u equiv hr-1
Rattus norvegicus [33]
  Acid output: 100.5 u equiv hr-1
Rattus norvegicus [4]
  inhibition in vivo at 10 mg/kg: 84.6%
Rattus norvegicus [34]
  Length: 46.5 mm

## C[C@H](CCC1(O)OC2CC3C4CC=C5C[C@@H](O[C@@H]6O[C@H](CO)[C@@H](O)[C@H](O)[C@H]6O[C@@H]6O[C@@H](C)[C@H](O)[C@@H](O)[C@H]6O)CC[C@]5(C)C4CC[C@]3(C)C2[C@@H]1C)CO[C@@H]1O[C@H](CO)[C@@H](O)[C@H](O)[C@H]1O (some centres not stated) [TRIGOFOENOSIDE A]
Rattus norvegicus [5]
  inhibition in vivo at 5 mg/kg: 11.7%
Rattus norvegicus [10]
  inhibition in vivo at 2.5 mg/kg: 26.2%
Rattus norvegicus [35]
  Length: 111 mm
Rattus norvegicus [36]
  Length: 74.7 mm
Rattus norvegicus [21]
  inhibition in vivo at 5 mg/kg: 16%
Rattus norvegicus [37]
  Length: 93 mm

## C[C@H](CCC1(O)OC2CC3C4CC=C5C[C@@H](O[C@@H]6O[C@H](CO)C(O[C@@H]7O[C@@H](CO)[C@H](O)[C@H]7O)[C@@H](O)[C@H]6O[C@@H]6O[C@@H](C)[C@H](O)[C@@H](O)[C@H]6O)CC[C@]5(C)C4CC[C@]3(C)C2[C@@H]1C)CO[C@@H]1O[C@H](CO)[C@@H](O)[C@H](O)[C@H]1O (some centres not stated) [PARISAPONIN I]
Rattus norvegicus [5]
  inhibition in vivo at 5 mg/kg: 15.6%
Rattus norvegicus [10]
  inhibition in vivo at 2.5 mg/kg: 9.2%
Rattus norvegicus [35]
  Length: 106 mm
Rattus norvegicus [38]
  Length: 114 mm
Rattus norvegicus [36]
  Length: 82.5 mm
Rattus norvegicus [21]
  inhibition in vivo at 5 mg/kg: 7.2%

## CC1CC[C@@]2(OC1)OC1CC3C4CC=C5C[C@@H](O)CC[C@]5(C)C4CC[C@]3(C)[C@@]1(O)[C@@H]2C (some centres not stated)
Rattus norvegicus [39]
  Length: 134 mm
Rattus norvegicus [3]
  inhibition in vivo at 10 mg/kg: 2.5%
Rattus norvegicus [40]
  Length: 67.1 mm
Rattus norvegicus [4]
  inhibition in vivo at 10 mg/kg: 6.8%
